Read-outs that look alike come from different tables or passages of the source.
How the values were obtained:
Thromboxane Synthase = assay: Thromboxane synthase inhibition (Table III, enzyme source not stated); format: biochemical; conditions: platelet species not stated, read-out: Thromboxane Synthase Inh. IC50
Experimental: (§1) Rac.-2-amino-N-(2,6-dimethylphenyl)-N-[3-(3-pyridinyl)propyl]propanamide dihydrochloride was tested for its inhibitory effects on thromboxane A2 synthetase (washed rabbit platelet) activity in vitro.
(§2) Therefore, rac.-2-amino-N-(2,6-dimethylphenyl)-N-[3-(3-pyridinyl)propyl]propanamide dihydrochloride is useful in the treatment of ischemic heart disease.

[1] = system: Ouabain-induced ventricular arrhythmia; assay: Effectiveness against ouabain-induced ventricular arrhythmia in anesthetized dogs; format: in vivo, dog; conditions: for minimal effective dose: Canis lupus familiaris, iv; for minimal effective dose / No. of effective cases/No. of experiments: dog
Experimental: Ventricular arrhythmia in an anesthetized dog was induced by an intravenous administration of ouabain. An initial i.v. dose of 40 μg/kg was administered, then 20 μg/kg i.v. 30 minutes later and then additional 10 μg/kg i.v. every 15 minutes until ventricular arrhythmia developed. […] The test compound, which was rac.-2-amino-N-(2,6-dimethylphenyl)-N-[3-(3-pyridinyl)propyl]propanamide dihydrochloride, dissolved in saline solution, was injected into the femoral vein 10 min. after the development of the arrhythmia. The dose schedule for the test compound was 1, 3 and 10 mg/kg i.v. in this order at 15 minute intervals until the arrhythmia was reversed to sinus rhythm.
Effectiveness against Ouabain-induced
Ventricular Arrhythmia in Dogs
MED: Minimum effective dose was measured by successive injections of 1, 3
and 10 mg/kg into the femoral vein at 15 minuteintervals until
ouabaininduced arrhythmia was reversed to the sinus rhythm.

[2] = system: Arachidonic Acid (AA) induced aggregation of human platelet rich plasma; assay: Inhibition of arachidonic acid (AA) induced platelet aggregation; format: cell-based; conditions: 2 min, human PRP, AA 0.3 to 1 mM
Experimental: (§3) Human platelet rich plasma (PRP) and platelet poor plasma (PPP) are prepared from 0.38% sodium citrate treated blood. PRP is obtained by centrifugation at 180×g for 10 minutes and PPP by centrifuging the remaining red cell layer 1000×g for 10 minutes. Aggregation is determined by the turbidometric method of Born G.V.R., Nature, 194, 927, (1962), and monitored at 37° C. with a Payton dual channel module with stirring speed set at 900 rpm. PRP (0.45 ml) is added to a siliconized cuvette and prewarmed to 37° C. Zero and 100% light transmission are set with PRP and PPP, respectively. AA (50 μl) is added to the stirring PRP one minute after the addition of 5 μl of the compound to be tested. A threshold dose (0.3 to 1 mM) of AA is chosen which causes maximum aggregation at about 2 minutes. […] Activities of compounds of the invention in this test can be found in Table III below.

[3] = system: Platelet Activating Factor (PAF) induced aggregation of human platelet rich plasma; assay: Inhibition of platelet activating factor (PAF) induced platelet aggregation; format: cell-based; conditions: human PRP, PAF 1 μM, first phase response
Experimental: as §3, with “which was cited above,” for “G.V.R., Nature, 194, 927, (1962),”, “PAF” for “AA”, “PRP prepared from citrated human blood will aggregate when stirred in the presence of PAF giving a two phase response. The first phase is caused by PAF and the second phase is caused by the release of arachidonic acid. PAF is used at 1 μM and only the first phase response, about 30% aggregation, is evaluated. The first phase is resistant to indomethacin. 50% inhibition of the 1st phase PAF response is calculated from” for “A threshold”, “curves and represented as IC50 values.” for “(0.3 to 1 mM) of AA is chosen which causes maximum aggregation at about 2 minutes.”

[4] = biological target: T1, thromboxane A2 synthetase (Homo sapiens, UniProt P24557); assay: Thromboxane A2 synthetase inhibition, human platelets, PG H2 substrate; format: biochemical; conditions: PG H2 as the substrate, read-out: thromboxane A2 synthetase inhibition IC50 range
T1 construct: thromboxane A2 synthetase activity of human platelets; from tissue; host or cells: human platelets
T1 sequence (P24557 1-533): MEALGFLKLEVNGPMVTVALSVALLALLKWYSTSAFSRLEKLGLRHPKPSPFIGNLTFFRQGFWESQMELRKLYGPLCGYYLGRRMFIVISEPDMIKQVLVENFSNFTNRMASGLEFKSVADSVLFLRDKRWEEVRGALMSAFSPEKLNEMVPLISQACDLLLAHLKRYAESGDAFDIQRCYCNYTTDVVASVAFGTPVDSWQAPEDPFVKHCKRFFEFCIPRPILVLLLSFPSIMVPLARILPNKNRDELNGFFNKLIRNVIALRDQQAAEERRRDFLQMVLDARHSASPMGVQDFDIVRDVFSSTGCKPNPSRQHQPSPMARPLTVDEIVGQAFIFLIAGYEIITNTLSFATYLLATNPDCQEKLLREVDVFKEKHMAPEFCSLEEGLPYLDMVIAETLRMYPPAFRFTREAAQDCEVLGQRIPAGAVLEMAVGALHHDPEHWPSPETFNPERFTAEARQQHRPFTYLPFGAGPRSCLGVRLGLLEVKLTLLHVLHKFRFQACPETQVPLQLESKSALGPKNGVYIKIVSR
From the text: as §2

[5] = system: ventricular arrhythmias induced by 2-stage ligation of the coronary artery; assay: Ventricular arrhythmias induced by 2-stage ligation of the coronary artery (Harris dogs); format: in vivo, dog (mongrel); conditions: for incidence of ventricular premature contractions and conversion to sinus rhythm: n=5
Experimental: (2) Test for effectiveness against ventricular arrhythmias induced by 2-stage ligation of the coronary artery in dogs (Harris dogs)
Mongrel dogs weighing between 8-14 kg were anesthetized using 30 mg/kg i.v. of sodium pentobarbital. They were artificially ventilated with room air. After thoracotomy via the fourth left intercostal space, the pericardium was opened. The left anterior descending artery was dissected free for a few millimeters near the distal edge of the […] and ligated there in two stages being separated by an interval of 30 minutes. […] Electrograms were monitored continuously throughout the experiment and the number of ventricular and sinus beats (expressed per minute) was counted for 5 minutes every 15 or 30 minutes after p.o. administration of compound and the percentage of ventricular premature beats were calculated.

[6] = biological target: T2, thromboxane A2 synthetase (Oryctolagus cuniculus, UniProt G1TAZ9); assay: Thromboxane A2 synthetase inhibition, washed rabbit platelets, C^14-arachidonic acid substrate; format: biochemical; conditions: in vitro
T2 construct: Using washed rabbit platelets as the enzyme sources; from tissue; host or cells: washed rabbit platelets
T2 sequence (G1TAZ9 1-530): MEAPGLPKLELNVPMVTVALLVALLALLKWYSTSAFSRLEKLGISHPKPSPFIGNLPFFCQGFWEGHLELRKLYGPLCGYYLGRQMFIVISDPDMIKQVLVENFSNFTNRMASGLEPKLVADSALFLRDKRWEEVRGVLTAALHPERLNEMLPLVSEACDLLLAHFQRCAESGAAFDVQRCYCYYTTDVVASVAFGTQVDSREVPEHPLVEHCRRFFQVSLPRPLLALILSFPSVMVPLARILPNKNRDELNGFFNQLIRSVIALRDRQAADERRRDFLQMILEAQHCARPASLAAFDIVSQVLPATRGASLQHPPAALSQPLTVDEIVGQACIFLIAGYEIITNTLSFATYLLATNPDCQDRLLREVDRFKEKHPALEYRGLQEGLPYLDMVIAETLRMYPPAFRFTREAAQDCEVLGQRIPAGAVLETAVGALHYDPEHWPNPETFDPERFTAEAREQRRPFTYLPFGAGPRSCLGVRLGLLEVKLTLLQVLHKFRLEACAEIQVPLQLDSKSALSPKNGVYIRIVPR
Experimental: as §1, §2

[7] = system: collagen-induced rabbit platelet aggregation; assay: Ex vivo inhibition of collagen-induced rabbit platelet aggregation by plasma of orally treated rats; format: in vivo, rabbit platelets; plasma of treated rats; conditions: for collagen-induced platelet aggregation, % of control: 4 rats, 1 hour after dosing, collagen 3 μg/ml, control = 100%
Experimental: (4) Ex vivo experiments: Inhibition of rabbit platelet aggregation induced by collagen by the plasma of rats treated with oral rac.-2-amino-N-(2,6-dimethylphenyl)-N-[3-(3-pyridinyl)propyl]propanamide dihydrochloride
The antiplatelet aggregatory activity of rac.-2-amino-N-(2,6-dimethylphenyl)-N-[3-(3-pyridinyl) propyl]propanamide dihydrochloride was observed ex vivo in rats.
control. The control = 100% platelet aggregation.
An aliquot (125 μl) of the platelet free plasma of the rats which had
been orally treated with compound for 1 hour was added to the platelet
rich plasma (125 μl) of the rabbit. Collagen (3 μg/ml) induced
platelet aggregation was measured turbidimetrically.

[8] = read-out: Ouabain Induced Arrhythmias MED, Table III

Structure (SMILES) | IC50 (Thromboxane Synthase) | IC50 [2] | IC50 [3] | minimal effective dose [1, 8] | also measured
Cc1cccc(C)c1N(CCCc1cccnc1)C(=O)Cn1ccnc1 | 0.1 to 1 µM | > 10 µM | 1 µM |  | Ouabain Induced Arrhythmias: number dead/number tested ([1]; dead at 1 mg/kg IV): 1/2
Cc1cccc(C)c1N(CCn1ccnc1)C(=O)CCCc1cccnc1 | 0.1 to 1 µM | 0.5 µM | 0.5 µM |  | Ouabain Induced Arrhythmias: number dead/number tested ([1]; dead at 3 mg/kg IV): 1/2
Cc1ccc(N(CCCc2cccnc2)C(=O)C(C)N)cc1 (racemic) [H H CH3, rac.-2-amino-N-(4-methylphenyl)-N-[3-(3-pyridinyl)propyl]propanamide] | 10 to 100 µM |  |  | > 10 mg/kg | 
CC(N)C(=O)N(CCCc1cccnc1)c1ccccc1 (racemic) [H H H, rac.-2-amino-N-phenyl-N-[3-(3-pyridinyl)propyl]propanamide] | 10 to 100 µM |  |  | > 10 mg/kg | 
Cc1cccc(C)c1N(CCCc1cccnc1)C(=O)C(C)N.Cl.Cl (racemic) [rac.-2-amino-N-(2,6-dimethylphenyl)-N-[3-(3-pyridinyl)propyl]propanamide dihydrochloride] | 10 to 100 µM | 5 µM | 20 µM | 4.4 ± 1.4 mg/kg | IC50 [4]: 1 to 10 µM; onset of the antiarrhythmic effects ([5]; 30 mg/kg p.o.): approximately 1 hour; time of maximum effect after dosing ([5]; 30 mg/kg p.o.): 5 h; percentage of ventricular premature beats at maximum effect ([5]; 30 mg/kg p.o., 5 hours after dosing, from 94±1.5%, p<0.01): 13±7.9%; incidence of ventricular premature contractions and conversion to sinus rhythm ([5]; 30 mg/kg p.o.): dramatically decreased the incidence of ventricular premature contractions (VPCs) and converted ventricular arrhythmias to sinus rhythm; onset of the antiarrhythmic effects ([5]; 100 mg/kg p.o.): ~2 h; time of maximum effect after dosing ([5]; 100 mg/kg p.o.): 2.5 h; percentage of ventricular premature beats at maximum effect ([5]; 100 mg/kg p.o., 2.5 hours after dosing, from 94±0.5%, p<0.05): 10±9.5%; incidence of ventricular premature contractions and conversion to sinus rhythm ([5]; 100 mg/kg p.o.): dramatically decreased the incidence of ventricular premature contractions (VPCs) and converted ventricular arrhythmias to sinus rhythm; duration of the antiarrhythmic effects after dosing ([5]; 30 and 100 mg/kg p.o.): at least 6 hours; IC50 [6]: 38 µM; collagen-induced platelet aggregation, % of control ([7]; 50 mg/kg p.o.): 77.1 ± 11.7 % of control; collagen-induced platelet aggregation, % of control ([7]; 100 mg/kg p.o., p < 0.01): 64.8 ± 6.2 % of control; collagen-induced platelet aggregation, % of control ([7]; 200 mg/kg p.o., p < 0.01): 40.3 ± 14.0 % of control; ED50 ([7]; Rattus norvegicus, Platelet, po, plasma of rats treated orally for 1 hour, read-out: ED50, inhibition of collagen-induced rabbit platelet aggregation (95% confidence limit)): 123 mg/kg; ED50, inhibition of collagen-induced rabbit platelet aggregation (95% confidence limit) ([7]; plasma of rats treated orally for 1 hour, dihydrochloride, 60 min): 123 (85-274) mg/kg p.o.; No. of effective cases/No. of experiments ([1]; 1 mg/kg i.v.): 0/4; No. of effective cases/No. of experiments ([1]; 3 mg/kg i.v.): 4/5; No. of effective cases/No. of experiments ([1]; 10 mg/kg i.v.): 1/1; minimal effective dose ([1]; 0.25 h, successive injections of 1, 3 and 10 mg/kg at 15 minute intervals, read-out: MED (minimum effective dose), Table I): 4.4 ± 1.4 mg/kg
Cc1cccc(C)c1NC(=O)C(C)N (centres unmarked) [reference compound] |  | > 100 µM | > 100 µM | 15.5 ± 3.4 mg/kg | 

Now from value to molecule, other results behind:

IC50 (Thromboxane Synthase) | IC50 [2] | IC50 [3] | Structure (SMILES) | minimal effective dose [1, 8] | also measured
10 to 100 µM | > 10 µM | > 10 µM | Cc1cccc(C)c1N(CCCCc1cccnc1)C(=O)C(C)N (centres unmarked) |  | Ouabain Induced Arrhythmias: number converted/number tested ([1]; converted at 3 mg/kg IV): 1/3
10 to 100 µM |  |  | Cc1cccc(C)c1N(CCCCCCc1cccnc1)C(=O)C(C)N (centres unmarked) | 8.3 ± 1.8 mg/kg | 
~10 µM | > 10 µM | > 10 µM | Cc1cccc(C)c1N(CCCCn1ccnc1)C(=O)C(C)N (centres unmarked) | > 10 mg/kg | 
0.1 to 1 µM | > 10 µM | > 10 µM | Cc1cccc(C)c1N(CCCc1cccnc1)C(=O)Cn1ccnc1C | > 10 mg/kg | 
